Laboratory results: patent US5397705A, “Multiply mutated subtilisins” (Amgen Inc., priority 1992, dated 1995)
Residue numbers refer to the chain shown, from its start. Where a SMILES comes first, the peptide text is derived from it.

Key:
Experiment in all cases: Kinetics of hydrolysis of succinyl Ala-Ala-Pro-Phe-para-nitroanilide by the subtilisin analog
[1] = target: T1, Bacillus subtilis aprA subtilisin analog [Asp^76, Ser^109, Ser^218, Ala^222] (Asn76Asp, Asn109Ser, Asn218Ser, Met222Ala) (Bacillus subtilis, UniProt P04189, M328A/N182D/N215S/N324S); assay type: biochemical; conditions: substrate succinyl Ala-Ala-Pro-Phe-para-nitroanilide
T1 construct: made in house; host or cells: Bacillus host cells (plasmid pAMB143)
T1 sequence (P04189 107-381 N182D/N215S/N324S/M328A): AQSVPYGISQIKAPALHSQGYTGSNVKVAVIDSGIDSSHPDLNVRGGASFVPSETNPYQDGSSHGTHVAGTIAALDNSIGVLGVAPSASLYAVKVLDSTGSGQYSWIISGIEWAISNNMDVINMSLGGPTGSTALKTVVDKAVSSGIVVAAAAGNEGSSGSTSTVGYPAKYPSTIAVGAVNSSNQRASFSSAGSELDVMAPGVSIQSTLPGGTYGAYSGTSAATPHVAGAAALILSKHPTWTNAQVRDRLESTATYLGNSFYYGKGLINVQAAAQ
Source text: (§1) As mentioned earlier, analog [Asp^76, Ser^109, Ser^218, Ala^222 ] has a lower specific activity toward azocasein than analog [Asp^76, Ser^109, Ser^218 ], with an approximate Vm of 0.02 dA/(min-mg/ml) versus 0.08 dA/(min-mg/ml) for [Asp^76, Ser^109, Ser^218 ]. To see if this decreased activity was specific for azocasein, or a general characteristic of the [Asp^76, Ser^109, Ser^218, Ala^222 ] analog, the kinetics of the hydrolysis of the artificial peptide succinyl Ala-Ala-Pro-Phe-para-nitroanilide was analyzed for [Asp^76, Ser^109, Ser^218, Ala^222 ] and [Asp^76, Set^109, Ser^218 ]. […] This specific activity is 4-fold less than that of aprA-subtilisin. The catalytic Ser is at position 221, and it appears that substitutions at position 222 interfere with substrate binding as well as with the rate limiting step of proteolysis.

[2] = target: T2, Bacillus subtilis aprA subtilisin analog [Asp^76, Ser^109, Ser^218] (Asn76Asp, Asn109Ser, Asn218Ser) (Bacillus subtilis, UniProt P04189, N182D/N215S/N324S); assay type: biochemical; conditions: substrate succinyl Ala-Ala-Pro-Phe-para-nitroanilide
T2 construct: made in house; host or cells: Bacillus subtilis (plasmid pAMB131)
T2 sequence (P04189 107-381 N182D/N215S/N324S): T1 sequence (P04189 107-381 N182D/N215S/N324S/M328A) with A222M
Source text: as §1

[3] = substrate: C[C@H](NC(=O)CCC(=O)O)C(=O)N[C@@H](C)C(=O)N1CCC[C@H]1C(=O)N[C@@H](Cc1ccccc1)C(=O)Nc1ccc([N+](=O)[O-])cc1; assay type: biochemical, Bacillus subtilis; conditions: other: substrate succinyl Ala-Ala-Pro-Phe-para-nitroanilide
Source text: as §1

C[C@H](NC(=O)CCC(=O)O)C(=O)N[C@@H](C)C(=O)N1CCC[C@H]1C(=O)N[C@@H](Cc1ccccc1)C(=O)Nc1ccc([N+](=O)[O-])cc1 [succinyl-L-alanyl-L-alanyl-L-prolyl-L-phenylalanyl-p-nitroanilide] (HELM PEPTIDE1{[O=C(O)CCC(=O)[*:2]].A.A.P.F.[O=[N+]([O-])c1ccc(N[*:1])cc1]}$$$$V2.0)
Vmax [1]: 1.1 dA/(min-nmole)
Vmax [2]: 7.9 dA/(min-nmole)

B1: Bacillus subtilis aprA subtilisin analog [Asp^76, Ser^109, Ser^218] (Asn76Asp, Asn109Ser, Asn218Ser) (Bacillus subtilis subsp. subtilis str. 168; … (protein)
chain: T1 sequence (P04189 107-381 N182D/N215S/N324S/M328A) with A222M
notes: made in house; host or cells: Bacillus subtilis (plasmid pAMB131)
Km ([3]; analog [Asp^76, Ser^109, Ser^218]): 440 µM

B2: Bacillus subtilis aprA subtilisin analog [Asp^76, Ser^109, Ser^218, Ala^222] (Asn76Asp, Asn109Ser, Asn218Ser, Met222Ala) (Bacillus subtilis subsp. subtilis … (protein)
chain: T1 sequence (P04189 107-381 N182D/N215S/N324S/M328A)
notes: made in house; host or cells: Bacillus host cells (plasmid pAMB143)
Km ([3]; analog [Asp^76, Ser^109, Ser^218, Ala^222]): 1400 µM
